Measurements as given in patent publication US20200407393A1, “Medical Use” (priority 2018, published 2020).
Where two headings read alike, the source gives them in different places.

How the values were obtained:
[1] = tested on: M184V pseudotyped virus in U373 cells; type: cell-based, HIV;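 note: reported value is IC50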
[2] = tested on: WT pseudotyped virus (NL4-3 provirus with HIV gp160 envelope) in U373 cells; experiment: PSV assay (pseudotyped virus assay), WT; details: read-out: WT IC50
Excerpt: A pseudotyped virus assay (PSV) was used to assess the potency of the compounds. Replication defective virus was produced by co-transfection of a plasmid containing an NL4-3 provirus [containing a mutation in the envelope open reading frame (ORF) and a luciferase reporter gene replacing the nef ORF] and a CMV-promoter expression plasmid containing an ORF for various HIV gp160 envelope clones. The harvested virus was stored at −80 C in small aliquots and the titer of the virus measured to produce a robust signal for antiviral assays.
The PSV assay was performed by using U373 cells stably transformed to express human CD4, the primary receptor for HIV entry and either human CXCR4 or human CCR5 which are the co-receptors required for HIV entry as target cells for infection. […] This dose-range was applied to U373 cells and the pre-made pseudotyped virus added. The amount of luciferase signal produced after 3 days of culture was used to reflect the level of pseudotyped virus infection. […] IC50 values were determined from a 10 point dose response curve using 3-4-fold serial dilution for each compound, which spans a concentration range>1000 fold.
These values are plotted against the molar compound concentrations using the standard four parameter logistic equation:
y=((Vmax*x^n)/(K^n+x^n))+Y2 • where: • Y2=minimum y n=slope factor • Vmax=maximum y x=compound concentration [M] • K=EC50

[3] = tested on: WT pseudotyped virus (PSV) infection of U373 cells; experiment: microbe, parasite or virus in culture; type: cell-based; details: for IC50: Human immunodeficiency virus 1, U373 MG, cells treated 6 h, washed; for Fold Change vs EFdA: fold change of the persistence index relative to EFdA; for Persistence Index: ratio of the IC50 determined at 48 and 0 h
[4] = Table 5, mean of a greater number of data replicates
[5] = Human immunodeficiency virus 1, NL43, U373 MG
[6] = Table 4, luciferase signal after 3 days of culture
[7] = Human immunodeficiency virus 1, NL43, U373 MG, 72 h
[8] = infected 48 h after removal of compound, read-out: WT IC50 at t = 48 h
[9] = infected immediately (0 h), read-out: WT IC50 at t = 0 h

## C#C[C@]1(COC(=O)CCCCCCCCCCCC)O[C@@H](n2cnc3c(N)nc(F)nc32)C[C@@H]1O [Example 13, ((2R,3S,5R)-5-(6-amino-2-fluoro-9H-purin-9-yl)-2-ethynyl-3-hydroxytetrahydrofuran-2-yl)methyl tridecanoate]
[1]; [4]
  IC50: 12 nM
[2]; [5]
  IC50: 2 nM

## C#C[C@]1(COC(=O)CCCCCCCC#CC)O[C@@H](n2cnc3c(N)nc(F)nc32)C[C@@H]1O [Example 17, ((2R,3S,5R)-5-(6-amino-2-fluoro-9H-purin-9-yl)-2-ethynyl-3-hydroxytetrahydrofuran-2-yl)methyl undec-9-ynoate]
[1]; [4]
  IC50: 13 nM
[2]; [5]
  IC50: 3 nM

## C#C[C@]1(COC(=O)CCCCCC)O[C@@H](n2cnc3c(N)nc(F)nc32)C[C@@H]1O [Example 2, ((2R,3S,5R)-5-(6-amino-2-fluoro-9H-purin-9-yl)-2-ethynyl-3-hydroxytetrahydrofuran-2-yl)methyl heptanoate]
[1]; [6]
  IC50: 12 nM
[1]; [4]
  IC50: 15 nM
[2]; [7]
  IC50: 3 nM
[2]; [5]
  IC50: 3 nM

## C#C[C@]1(COC(=O)CCCCCCCC#CCCCCCCCC)O[C@@H](n2cnc3c(N)nc(F)nc32)C[C@@H]1O [Example 18, ((2R,3S,5R)-5-(6-amino-2-fluoro-9H-purin-9-yl)-2-ethynyl-3-hydroxytetrahydrofuran-2-yl)methyl octadec-9-ynoate]
[1]; [4]
  IC50: 14 nM
[2]; [5]
  IC50: 2 nM

## C#C[C@]1(COC(=O)C(C)(C)CCC)O[C@@H](n2cnc3c(N)nc(F)nc32)C[C@@H]1O [Example 20, ((2R,3S,5R)-5-(6-amino-2-fluoro-9H-purin-9-yl)-2-ethynyl-3-hydroxytetrahydrofuran-2-yl)methyl 2,2-dimethylpentanoate]
[1]; [4]
  IC50: 91 nM
[2]; [5]
  IC50: 25 nM

## C#C[C@]1(COC(=O)CCCCCCCCCCCCC)O[C@@H](n2cnc3c(N)nc(F)nc32)C[C@@H]1O [Example 1, ((2R,3S,5R)-5-(6-amino-2-fluoro-9H-purin-9-yl)-2-ethynyl-3-hydroxytetrahydrofuran-2-yl)methyl tetradecanoate]
[3]; [8]
  IC50: 89.1 nM
[3]; [9]
  IC50: 2.5 nM
[3]
  Fold Change vs EFdA: 1.33
  Persistence Index: 35.22
[1]; [6]
  IC50: 12 nM
[1]; [4]
  IC50: 10 nM
[2]; [7]
  IC50: 2 nM
[2]; [5]
  IC50: 1 nM

## ((2R,3S,5R)-5-(6-amino-2-fluoro-9H-purin-9-yl)-2-ethynyl-3-hydroxytetrahydrofuran-2-yl)methyl tetracosanoate [Example 16]
[1]; [4]
  IC50: 10700 nM
[2]; [4]
  IC50: 2280 nM

## C#C[C@]1(COC(=O)CCCCCCC/C=C\C/C=C\C/C=C\CC)O[C@@H](n2cnc3c(N)nc(F)nc32)C[C@@H]1O [Example 6, (9Z,12Z,15Z)-((2R,3S,5R)-5-(6-amino-2-fluoro-9H-purin-9-yl)-2-ethynyl-3-hydroxytetrahydrofuran-2-yl)methyl octadeca-9,12,15-trienoate]
[3]; [8]
  IC50: 180 nM
[3]; [9]
  IC50: 3.7 nM
[3]
  Fold Change vs EFdA: 0.75
  Persistence Index: 56.90
[1]; [6]
  IC50: 24 nM
[1]; [4]
  IC50: 21 nM
[2]; [7]
  IC50: 4 nM
[2]; [5]
  IC50: 4 nM

## C#C[C@]1(CO)O[C@@H](n2cnc3c(N)nc(F)nc32)C[C@@H]1O [EFdA, (2R,3S,5R)-5-(6-amino-2-fluoro-9H-purin-9-yl)-2-ethynyl-2-(hydroxymethyl)tetrahydrofuran-3-ol, reference compound]
[3]; [9]
  IC50: 7.4 nM
[3]
  Fold Change vs EFdA: 1.00
  Persistence Index: 42.87

## C#C[C@]1(COC(=O)CCCCCCCCCCCCCCCC)O[C@@H](n2cnc3c(N)nc(F)nc32)C[C@@H]1O [Example 15, ((2R,3S,5R)-5-(6-amino-2-fluoro-9H-purin-9-yl)-2-ethynyl-3-hydroxytetrahydrofuran-2-yl)methyl heptadecanoate]
[1]; [4]
  IC50: 26 nM
[2]; [5]
  IC50: 4 nM

## C#C[C@]1(COC(=O)C(CCCC)CCCCCC)O[C@@H](n2cnc3c(N)nc(F)nc32)C[C@@H]1O (stereo partly drawn) [Example 21, ((2R,3S,5R)-5-(6-amino-2-fluoro-9H-purin-9-yl)-2-ethynyl-3-hydroxytetrahydrofuran-2-yl)methyl 2-butyloctanoate]
[1]; [4]
  IC50: 113 nM
[2]; [5]
  IC50: 25 nM

## C#C[C@]1(COC(=O)CCCCCCCCCCCCCCCCCCC)O[C@@H](n2cnc3c(N)nc(F)nc32)C[C@@H]1O [Example 5, ((2R,3S,5R)-5-(6-amino-2-fluoro-9H-purin-9-yl)-2-ethynyl-3-hydroxytetrahydrofuran-2-yl)methyl icosanoate]
[3]; [8]
  IC50: 102 nM
[3]; [9]
  IC50: 51.7 nM
[3]
  Fold Change vs EFdA: 23.90
  Persistence Index: 1.97
[1]; [6]
  IC50: 322 nM
[1]; [4]
  IC50: 333 nM
[2]; [7]
  IC50: 70 nM
[2]; [5]
  IC50: 67 nM

## C#C[C@]1(COC(=O)CCCCCCCC)O[C@@H](n2cnc3c(N)nc(F)nc32)C[C@@H]1O [Example 11, ((2R,3S,5R)-5-(6-amino-2-fluoro-9H-purin-9-yl)-2-ethynyl-3-hydroxytetrahydrofuran-2-yl)methyl nonanoate]
[1]; [4]
  IC50: 13 nM
[2]; [5]
  IC50: 3 nM

## C#C[C@]1(COC(=O)C(C)(C)C)O[C@@H](n2cnc3c(N)nc(F)nc32)C[C@@H]1O [Example 19, ((2R,3S,5R)-5-(6-amino-2-fluoro-9H-purin-9-yl)-2-ethynyl-3-hydroxytetrahydrofuran-2-yl)methyl pivalate]
[1]; [4]
  IC50: 150 nM
[2]; [5]
  IC50: 30 nM

## C#C[C@]1(COC(=O)CCCCCCCCCCCCCC)O[C@@H](n2cnc3c(N)nc(F)nc32)C[C@@H]1O [Example 14, ((2R,3S,5R)-5-(6-amino-2-fluoro-9H-purin-9-yl)-2-ethynyl-3-hydroxytetrahydrofuran-2-yl)methyl pentadecanoate]
[1]; [4]
  IC50: 11 nM
[2]; [5]
  IC50: 2 nM

## C#C[C@]1(COC(=O)CC)O[C@@H](n2cnc3c(N)nc(F)nc32)C[C@@H]1O [Example 8, ((2R,3S,5R)-5-(6-amino-2-fluoro-9H-purin-9-yl)-2-ethynyl-3-hydroxytetrahydrofuran-2-yl)methyl propionate]
[1]; [4]
  IC50: 39 nM
[2]; [5]
  IC50: 8 nM

## C#C[C@]1(COC(=O)C(C)CCCCC)O[C@@H](n2cnc3c(N)nc(F)nc32)C[C@@H]1O (stereo partly drawn) [Example 23, ((2R,3S,5R)-5-(6-amino-2-fluoro-9H-purin-9-yl)-2-ethynyl-3-hydroxytetrahydrofuran-2-yl)methyl 2-methylheptanoate]
[1]; [4]
  IC50: 7 nM
[2]; [5]
  IC50: 1 nM

## C#C[C@]1(COC(=O)CCCC)O[C@@H](n2cnc3c(N)nc(F)nc32)C[C@@H]1O [Example 10, ((2R,3S,5R)-5-(6-amino-2-fluoro-9H-purin-9-yl)-2-ethynyl-3-hydroxytetrahydrofuran-2-yl)methyl pentanoate]
[1]; [4]
  IC50: 19 nM
[2]; [5]
  IC50: 3 nM

## C#C[C@]1(COC(=O)CCC)O[C@@H](n2cnc3c(N)nc(F)nc32)C[C@@H]1O [Example 9, ((2R,3S,5R)-5-(6-amino-2-fluoro-9H-purin-9-yl)-2-ethynyl-3-hydroxytetrahydrofuran-2-yl)methyl butyrate]
[1]; [4]
  IC50: 26 nM
[2]; [5]
  IC50: 5 nM

## C#C[C@]1(COC(C)=O)O[C@@H](n2cnc3c(N)nc(F)nc32)C[C@@H]1O [Example 7, ((2R,3S,5R)-5-(6-amino-2-fluoro-9H-purin-9-yl)-2-ethynyl-3-hydroxytetrahydrofuran-2-yl)methyl acetate]
[1]; [4]
  IC50: 55 nM
[2]; [5]
  IC50: 14 nM

## C#C[C@]1(COC(=O)C(CCC)CCC)O[C@@H](n2cnc3c(N)nc(F)nc32)C[C@@H]1O [Example 4, ((2R,3S,5R)-5-(6-amino-2-fluoro-9H-purin-9-yl)-2-ethynyl-3-hydroxytetrahydrofuran-2-yl)methyl 2-propyl pentanoate]
[3]; [8]
  IC50: 691 nM
[3]; [9]
  IC50: 21.1 nM
[3]
  Fold Change vs EFdA: 1.31
  Persistence Index: 32.78
[1]; [6]
  IC50: 119 nM
[1]; [4]
  IC50: 111 nM
[2]; [7]
  IC50: 14 nM
[2]; [5]
  IC50: 20 nM

## C#C[C@]1(COC(=O)CCCCCCCCCC)O[C@@H](n2cnc3c(N)nc(F)nc32)C[C@@H]1O [Example 12, ((2R,3S,5R)-5-(6-amino-2-fluoro-9H-purin-9-yl)-2-ethynyl-3-hydroxytetrahydrofuran-2-yl)methyl undecanoate]
[1]; [4]
  IC50: 9 nM
[2]; [5]
  IC50: 2 nM

## C#C[C@]1(COC(=O)C(CCCCCC)CCCCCCCC)O[C@@H](n2cnc3c(N)nc(F)nc32)C[C@@H]1O (stereo partly drawn) [Example 22, ((2R,3S,5R)-5-(6-amino-2-fluoro-9H-purin-9-yl)-2-ethynyl-3-hydroxytetrahydrofuran-2-yl)methyl 2-hexyldecanoate]
[1]; [4]
  IC50: 176 nM
[2]; [5]
  IC50: 36 nM

## C#C[C@]1(COC(=O)CC(F)(F)F)O[C@@H](n2cnc3c(N)nc(F)nc32)C[C@@H]1O [Example 24, ((2R,3S,5R)-5-(6-amino-2-fluoro-9H-purin-9-yl)-2-ethynyl-3-hydroxytetrahydrofuran-2-yl)methyl 3,3,3-trifluoropropanoate]
[1]; [4]
  IC50: 37 nM
[2]; [5]
  IC50: 8 nM

## C#C[C@]1(COC(=O)C(C)(C)C(F)(F)F)O[C@@H](n2cnc3c(N)nc(F)nc32)C[C@@H]1O [Example 25, ((2R,3S,5R)-5-(6-amino-2-fluoro-9H-purin-9-yl)-2-ethynyl-3-hydroxytetrahydrofuran-2-yl)methyl 3,3,3-trifluoro-2,2-dimethylpropanoate]
[1]; [4]
  IC50: 90 nM
[2]; [5]
  IC50: 21 nM

## C#C[C@]1(COC(=O)CCCCCCCCC)O[C@@H](n2cnc3c(N)nc(F)nc32)C[C@@H]1O [Example 3, ((2R,3S,5R)-5-(6-amino-2-fluoro-9H-purin-9-yl)-2-ethynyl-3-hydroxytetrahydrofuran-2-yl)methyl decanoate]
[1]; [6]
  IC50: 15 nM
[1]; [4]
  IC50: 14 nM
[2]; [7]
  IC50: 2 nM
[2]; [5]
  IC50: 3 nM
